Patent US5298494A, “Monosaccharides having anti-proliferation and anti-inflammatory activity, compositions and uses thereof” (Greenwich Pharmaceuticals Incorporated, priority 1993, dated 1994)

Columns and labels:
[1] = test system: LTB4 production by BUD-8 skin cell fibroblasts; assay: LTB4 production by BUD-8 skin cell fibroblasts (radioimmunoassay); assay type: cell-based, human; settings: concentration not given
Experimental: (§1) The effect of the compound of the present invention on the proliferative capacity of human BUD-8 skin fibroblasts was measured with the use of a ^3 H-thymidine incorporation assay using culture conditions which were similar to those used for a Con-A blastogenesis assay, described previously. Cultured skin cells were detached from the surface of tissue culture flasks mechanically with a Teflon scraper. The cells were washed, resuspended in incubation medium and the viabilities were determined. These cells were then plated in triplicate at a density of 2×10^3 cells/0.1 ml/microtiter well for the proliferation assay and a density of 1×10^4 cells/0.1 ml/microtiter well for the assays to quantitate PGE2 and LTB4. To these cells was added incubation medium containing indomethacin to inhibit prostaglandin production, or nordihydroguaiaretic acid (NDGA) to inhibit leukotriene production (positive controls).
(§2) After 18 hours of culture, samples of the BUD-8 skin cell supernatants were collected from one set of microtiter plates and frozen until assayed for PGE2 or for LTB4 content using the radioimmunoassays described below.
Levels of LTB4 in aliquots of BUD-8 skin cell cultures supernatants were quantitated by radioimmunoassay (New England Nuclear). Briefly, into each polyproplyene tube were mixed 0.1 ml anti-LTB4, 0.1. ml ^3 H-LTB4 and 0.1 ml LTB4 standard or LTB4 containing sample. The BUD-8 skin cell culture supernatants were used directly in the radioimmunoassay. Tubes were refrigerated overnight. A charcoal solution (0.5 ml of 0.5% charcoal Norit A) was added and each tube was centrifuged. The radioactivity in the supernatant was then counted in a liquid scintillation counter.

[2] = test system: BUD-8 human skin fibroblasts; assay: Fibroblast assay: proliferation of BUD-8 skin cell fibroblasts; assay type: cell-based; settings: concentration not given
Experimental: The human skin cell fibroblast line, BUD-8 was obtained prior to each assay from the American Type Culture Collection. This is a fibroblast-like cell line which was originally derived from the normal skin of a person.
(§3) BUD-8 cell cultures were expanded for use in 25 cm^2 flasks at 37° C. in an atmosphere of 5% CO2 in air. At approximately 4-5 five day intervals, or when confluence was reached, the cells were passaged. This was accomplished by detaching the cells with a Teflon scraper, washing and reseeding the cells at a lower density into fresh tissue culture flasks.
as §1
After 3 days of culture, 1 uCi ^3 H-thymidine was added in a 50 ul volume to each culture well of the microtiter plates. Eighteen hours later, each of the BUD-8 cultures was examined morphologically for evidence of compound-induced toxicity such as cell rounding or granularity. The thymidine-pulsed cells were then precipitated and the amount of ^3 H-thymidine incorporated was counted in a liquid scintillation counter.
The concentrations of the compounds of the invention which were used in these assays were:
The incubation medium used for culturing the BUD-8 cells was RPMI-1640 medium containing 10% fetal bovine serum, 100 ug/ml streptomycin, 100 U/ml penicillin, 0.2M Hepes buffer solution, 5×10^-5 M 2-mercaptoethanol and 2 mM glutamine.

[3] = test system: GS-109-V-20 human skin cell fibroblasts; assay: Fibroblast assay: proliferation of GS-109-V-20 skin cell fibroblasts; assay type: cell-based; settings: 2 × 10^-6 M Indomethacin; 2 × 10^-6 N NDGA
Experimental: The effect of methyl 3-O-3'-(N',N'-dimethylamino-n-propyl)-6-deoxy-D-glucopyranoside on the proliferative capacity of human GS-109-V-20 skin fibroblasts was measured with the use of ^3 H-thymidine incorporation assay. Cultured skin cells were detached from the surface of tissue culture flasks mechanically with a Teflon scraper. The cells were washed, resuspended in incubation medium and the viabilities determined. These cells were then plated in triplicate at a density of 1×10^3 cells/0.1 ml/microtiter well. To these cells was added 0.1 ml incubation medium containing the methyl 3-O-3'-(N',N'-dimethylamino-n-propyl)-6-deoxy-D-glucopyranoside compound.
After 3 days of culture, 1#uCi ^3 H-thymidine was added in 50 ul volume to each culture well of the microtiter plates. Eighteen hours later, each of the GS-109-V-20 cultures was examined morphologically for evidence of drug-induced toxicity such as cell rounding or granularity. The ^3 H-thymidine-pulsed cells were then precipitated and the amount of ^3 H-thymidine incorporation was counted on a liquid scintillation counter.
Methyl 3-O-3'-(N',N'-dimethylamino-n-propyl)-6-deoxy-D-glucopyranoside was suspended directly into the medium by extensive sonication, without being filter-sterilized. A range of doses of this compound was used to measure effects of this compound upon GS-109-V-20 cell proliferation. The following doses were used:
The human skin cell fibroblast line, GS-109-V-20, was obtained from the American Type Culture-Collection. […] These cells were selected for use because they are considered to exist in an initiated state, as opposed to being normal or transformed, and have a more extensive population doubling time and survival period in culture than do normal fibroblasts. In this regard, they would more closely reflect the biological characteristics of psoriatic or rheumatoid synovial fibroblasts which also proliferate more extensively than do normal fibroblasts, but not as extensively as immortalized transformed tumor cells.
as §3, with “The number of GS-109-V-20 cells was” for “BUD-8 cell cultures were”, “use in the described assays by culture” for “use”, “4-5” for “4-5 five”, “by trypsinization,” for “with a Teflon scraper,”

[4] = test system: PGE2 production by BUD-8 skin cell fibroblasts; assay: PGE2 production by BUD-8 skin cell fibroblasts (radioimmunoassay); assay type: cell-based, human; settings: concentration not given
Experimental: as §1, §2
A radioinmunoassay (New England Nuclear) was used to quantitate PGE2 levels in BUD-8 skin cell culture supernatants. Briefly, into each polypropylene tube were mixed 0.1 ml anti-PGE2, 0.1 ml ^125 1-PGE2 and 0.1 ml PGE2 standard or PGE2 containing sample. The BUD-8 skin culture supernatants were diluted 1:2 prior to addition to the radioimmunoassay. Tubes were refrigerated overnight. A polyethylene glycol solution (16%, 6,000 m.w.) was then added to precipitate immune complexes and the radioactivity in the precipitate was counted in a gamma counter.

[5] = test system: T lymphocytes (normal mouse spleen cells) stimulated with ConA; assay: Mouse Spleen Cell ConA Blastogenesis Assay; assay type: cell-based, mouse (C57Bl/6); settings: control compound, concentration not given

CC(Cc1ccc(O)c(O)c1)C(C)Cc1ccc(O)c(O)c1 (stereo not shown) [NDGA, nordihydroguaiaretic acid, reference compound]
LTB4 in supernatant (positive control) [1]: 19.9 ± 1.5 pg LTB4 100 ul supernatant
calculated LTB4 production/10^5 BUD-8 cells (positive control) [1]: 794 pg per 10^5 cells
% effect on LTB4 production (positive control) ([1]; 1080 min): -45%
% effect on BUD-8 proliferation (positive control) [2]: -5%
^3 H-Thymidine uptake by BUD-8 skin cells (positive control) [2]: 6,925 ± 313 cpm
^3 H-Thymidine uptake by GS-109-V-20 skin cells (control compound) [3]: 3,179 ± 489 cpm
PGE2 in supernatant (positive control) [4]: 14.7 ± 0.8 pg PGE2 /50 ul supernatant
calculated PGE2 production/10^5 BUD-8 cells (positive control) [4]: 933 pg per 10^5 cells
% effect on PGE2 production (positive control) ([4]; 1080 min): -8%
% effect on ConA blastogenic response (positive control) ([5]; ConA 1 ug/ml): -14%
Blastogenic response of normal spleen cells to Con-A (positive control) ([5]; ConA 1 ug/ml): 47.6 ± 5.0 × 10^-3 cpm
% effect on ConA blastogenic response (positive control) ([5]; ConA 4 ug/ml): -24%
Blastogenic response of normal spleen cells to Con-A (positive control) ([5]; ConA 4 ug/ml): 64.1 ± 9.2 × 10^-3 cpm
